Type in all cases: biochemical
Details in all cases: 15 nM tritium labelled cAMP, 1 hr at room temperature, SPA beads

One assay deals with PDE1B (Homo sapiens, UniProt Q01064). Kind of assay: PDE1 inhibition assay (PDE1B), SPA with tritium labelled cAMP. The protocol:
Reactions were initiated by addition of the cyclic nucleotide substrate, and reactions were allowed to proceed for 1 hr at room temperature before being terminated through mixing with 20 μL (0.2 mg) yttrium silicate SPA beads (PerkinElmer).

In another assay the target is PDE1A (Homo sapiens, UniProt P54750). Kind of assay: PDE1 inhibition assay (PDE1A), SPA with tritium labelled cAMP. On the procedure: (§1) PDE1A, PDE1B and PDE1C assays were performed as follows: the assays were performed in 60 μL samples containing a fixed amount of the PDE1 enzyme (sufficient to convert 20-25% of the cyclic nucleotide substrate), a buffer (50 mM HEPES (4-(2-hydroxyethyl)-1-piperazineethanesulfonic acid) pH 7.6; 10 mM MgCl2; 0.02% Tween20), 0.1 mg/ml BSA (bovine serum albumin), 15 nM tritium labelled cAMP and varying amounts of inhibitors. Reactions were initiated by addition of the cyclic nucleotide substrate, and reactions were allowed to proceed for 1 hr at room temperature before being terminated through mixing with 20 μL (0.2 mg) yttrium silicate SPA beads (PerkinElmer). The beads were allowed to settle for 1 hr in the dark before the plates were counted in a Wallac 1450 Microbeta counter. The measured signals were converted to activity relative to an uninhibited control (100%) and IC50 values were calculated using XIFit (model 205, IDBS).

For another assay, the target named is PDE1C (Homo sapiens, UniProt Q14123). Kind of assay: PDE1 inhibition assay (PDE1C), SPA with tritium labelled cAMP. The protocol: as §1

Read-outs that look alike come from different tables or passages of the source.

Sequence of PDE1C (Q14123 whole entry): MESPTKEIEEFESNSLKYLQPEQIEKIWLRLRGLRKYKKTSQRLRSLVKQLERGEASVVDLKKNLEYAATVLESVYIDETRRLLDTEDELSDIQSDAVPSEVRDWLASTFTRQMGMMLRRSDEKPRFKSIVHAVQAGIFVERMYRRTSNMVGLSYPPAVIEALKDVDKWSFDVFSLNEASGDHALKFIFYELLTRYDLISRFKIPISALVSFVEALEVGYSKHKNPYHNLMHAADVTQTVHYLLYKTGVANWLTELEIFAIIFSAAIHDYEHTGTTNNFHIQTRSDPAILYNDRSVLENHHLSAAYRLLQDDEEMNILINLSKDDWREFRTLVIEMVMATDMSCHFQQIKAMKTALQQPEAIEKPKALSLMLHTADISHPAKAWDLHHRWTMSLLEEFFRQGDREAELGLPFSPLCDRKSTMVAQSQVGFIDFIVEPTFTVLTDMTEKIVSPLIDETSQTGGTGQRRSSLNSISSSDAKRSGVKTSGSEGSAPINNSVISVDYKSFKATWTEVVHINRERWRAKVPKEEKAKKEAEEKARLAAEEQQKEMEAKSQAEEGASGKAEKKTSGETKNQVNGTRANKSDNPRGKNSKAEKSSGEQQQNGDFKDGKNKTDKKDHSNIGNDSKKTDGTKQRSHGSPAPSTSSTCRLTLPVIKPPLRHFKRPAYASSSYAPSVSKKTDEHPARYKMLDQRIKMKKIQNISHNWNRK
Sequence of PDE1A (P54750 whole entry): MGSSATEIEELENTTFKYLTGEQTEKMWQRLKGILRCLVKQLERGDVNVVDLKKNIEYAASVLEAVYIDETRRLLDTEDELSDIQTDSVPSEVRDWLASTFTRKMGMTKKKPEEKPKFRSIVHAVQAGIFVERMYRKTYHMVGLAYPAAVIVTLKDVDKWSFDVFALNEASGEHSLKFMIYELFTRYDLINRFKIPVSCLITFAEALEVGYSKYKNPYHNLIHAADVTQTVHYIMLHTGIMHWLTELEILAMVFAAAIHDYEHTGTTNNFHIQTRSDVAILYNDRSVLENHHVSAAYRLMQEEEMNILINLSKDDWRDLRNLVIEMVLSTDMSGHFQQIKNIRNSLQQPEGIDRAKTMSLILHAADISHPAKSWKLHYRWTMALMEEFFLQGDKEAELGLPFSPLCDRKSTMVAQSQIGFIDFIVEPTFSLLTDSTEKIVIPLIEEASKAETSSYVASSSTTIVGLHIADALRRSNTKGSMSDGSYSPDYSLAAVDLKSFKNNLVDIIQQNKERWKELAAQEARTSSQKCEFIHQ
Sequence of PDE1B (Q01064 whole entry): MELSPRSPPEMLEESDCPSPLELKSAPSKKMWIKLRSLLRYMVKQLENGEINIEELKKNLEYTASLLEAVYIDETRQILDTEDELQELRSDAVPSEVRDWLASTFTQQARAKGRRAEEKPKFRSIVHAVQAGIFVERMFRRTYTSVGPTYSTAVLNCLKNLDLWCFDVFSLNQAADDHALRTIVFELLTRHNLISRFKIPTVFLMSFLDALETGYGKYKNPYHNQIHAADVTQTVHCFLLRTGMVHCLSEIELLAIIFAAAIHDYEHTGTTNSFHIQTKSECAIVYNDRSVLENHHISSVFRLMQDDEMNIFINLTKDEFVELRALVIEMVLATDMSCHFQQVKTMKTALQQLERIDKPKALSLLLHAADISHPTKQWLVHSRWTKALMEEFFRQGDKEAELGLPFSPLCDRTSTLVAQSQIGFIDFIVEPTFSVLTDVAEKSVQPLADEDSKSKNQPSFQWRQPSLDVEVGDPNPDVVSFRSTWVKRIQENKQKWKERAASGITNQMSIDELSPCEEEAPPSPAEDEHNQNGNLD

As for `CCOc1ncccc1-c1cc(NCc2cnn(C)n2)c2c(C(C)C)nn(C)c2n1` [Example 26, 6-(2-ethoxypyridin-3-yl)-3-isopropyl-1-methyl-N-((2-methyl-2H-1,2,3-triazol-4-yl)methyl)-1H-pyrazolo[3,4-b]pyridin-4-amine], the IC50 – broadly, the midpoint of a concentration-inhibition curve – worked out at 18 nM against PDE1B (PDE1B, IC50 (nM)); 110 nM at PDE1A; 75 nM on PDE1C.
`CCOc1ncccc1-c1cc(NCc2nnn(C)n2)c2c(C(C)C)nn(C)c2n1` [Example 20, 6-(2-ethoxy-3-pyridyl)-3-isopropyl-1-methyl-N-[(2-methyltetrazol-5-yl)methyl]pyrazolo[3,4-b]pyridin-4-amine]: the half-maximal inhibitory concentration (IC50) at PDE1B (read-out: PDE1B, IC50) came to 2.8 nM; at PDE1A, 16 nM; on PDE1C it was 30 nM.
For `CCOc1ncccc1-c1cc(NCc2nccc(C)n2)c2c(C(C)C)nn(C)c2n1` [Example 35, 6-(2-ethoxy-3-pyridyl)-3-isopropyl-1-methyl-N-[(4-methylpyrimidin-2-yl)methyl]pyrazolo[3,4-b]pyridin-4-amine] the same measures were 25 nM, 200 nM and 180 nM.
For `CCOc1nnccc1-c1cc(NCc2ncn(C)n2)c2c(C(C)C)nn(C)c2n1` [Example 66, 6-(3-ethoxypyridazin-4-yl)-3-isopropyl-1-methyl-N-[(1-methyl-1,2,4-triazol-3-yl)methyl]pyrazolo[3,4-b]pyridin-4-amine] the same measures were 3.7 nM, 27 nM and 39 nM.
On to `CCOc1ncccc1-c1cc(NCc2cc(C)[nH]n2)c2c(C(C)C)nc(C)n2n1` [Example 13, 2-(2-ethoxy-3-pyridyl)-5-isopropyl-7-methyl-N-[(5-methyl-1H-pyrazol-3-yl)methyl]imidazo[1,5-b]pyridazin-4-amine], for which the half-inhibitory concentration (IC50) at PDE1B (read-out: PDE1B, IC50) is 0.31 nM; at PDE1A, 4.1 nM; on PDE1C it was 2.7 nM.
As for `CCOc1ncccc1-c1cc(NCc2cc[nH]n2)c2c(C(C)C)nc(C)n2n1` [Example 10, 2-(2-ethoxy-3-pyridyl)-5-isopropyl-7-methyl-N-(1H-pyrazol-3-ylmethyl)imidazo[1,5-b]pyridazin-4-amine], the IC50 at PDE1B (read-out: PDE1B, IC50) is 1.6 nM; at PDE1A it was 15 nM; against PDE1C, 13 nM.
With `CCOc1ncccc1-c1cc(NCc2cncc(OC)c2)c2c(C(C)C)nc(C)n2n1` [Example 14, 2-(2-ethoxy-3-pyridyl)-5-isopropyl-N-[(5-methoxy-3-pyridyl)methyl]-7-methyl-imidazo[1,5-b]pyridazin-4-amine], the half-maximal inhibitory concentration (IC50) at PDE1B (read-out: PDE1B, IC50) amounted to 1.5 nM; against PDE1A, 6.2 nM; against PDE1C, 5.1 nM.
For the molecule `CCOc1ncccc1-c1cc(NCc2cnn(C)c2)c2c(C(C)CC)nc(C)n2n1` (single isomer, unassigned; (+)) [Example 48, (+)-2-(2-ethoxy-3-pyridyl)-7-methyl-N-[(1-methylpyrazol-4-yl)methyl]-5-[1-methylpropyl]imidazo[1,5-b]pyridazin-4-amine], the IC50 on PDE1B (read-out: PDE1B, IC50) was determined as 0.64 nM; at PDE1A, 5.8 nM; against PDE1C, 4.9 nM.
With `CCOc1ncccc1-c1cc(NCc2cccnc2OC)c2c(C(C)C)nc(C)n2n1` [Example 77, 2-(2-ethoxy-3-pyridyl)-5-isopropyl-N-[(2-methoxy-3-pyridyl)methyl]-7-methyl-imidazo[1,5-b]pyridazin-4-amine], the IC50 was 9 nM at PDE1B (read-out: PDE1B, IC50); 48 nM against PDE1A; 48 nM at PDE1C.
With `CCCOc1ncccc1-c1cc(NCc2cn(C)cn2)c2c(C(C)C)nn(C)c2n1` [Example 34, 3-isopropyl-1-methyl-N-[(1-methylimidazol-4-yl)methyl]-6-(2-propoxy-3-pyridyl)pyrazolo[3,4-b]pyridin-4-amine], the concentration for half-maximal inhibition (IC50) on PDE1B (read-out: PDE1B, IC50) was 0.29 nM; against PDE1A it was 2.7 nM; against PDE1C it was 3.8 nM.
For `CCOc1ncccc1-c1cc(NCc2cn[nH]c2)c2c(C(C)C)nc(C)n2n1` [Example 18, 2-(2-ethoxy-3-pyridyl)-5-isopropyl-7-methyl-N-(1H-pyrazol-4-ylmethyl)imidazo[1,5-b]pyridazin-4-amine] the same measures were 5.7 nM, 33 nM and 16 nM.
For `CCOc1ncccc1-c1cc(NCc2ncccn2)c2c(C(C)C)nc(C)n2n1` [Example 75, 2-(2-ethoxy-3-pyridyl)-5-isopropyl-7-methyl-N-(pyrimidin-2-ylmethyl)imidazo[1,5-b]pyridazin-4-amine] the same measures were 0.13 nM, 11 nM and 24 nM.
For `CCOc1ncccc1-c1cc(NCc2cnn(C)c2)c2c(C(C)C)nc(C)n2n1` [Example 22, 2-(2-ethoxy-3-pyridyl)-5-isopropyl-7-methyl-N-[(1-methylpyrazol-4-yl)methyl]imidazo[1,5-b]pyridazin-4-amine] the same measures were 1.8 nM, 17 nM and 16 nM.
With `Cc1cnc(-c2cc(NCc3ncn(C)n3)c3c(C(C)C)nn(C)c3n2)s1` [Example 62, 3-isopropyl-1-methyl-6-(5-methylthiazol-2-yl)-N-[(1-methyl-1,2,4-triazol-3-yl)methyl]pyrazolo[3,4-b]pyridin-4-amine], the half-maximal inhibitory concentration (IC50) amounted to 170 nM on PDE1B (read-out: PDE1B, IC50); 280 nM on PDE1A; 150 nM against PDE1C.
For `CCOc1ncccc1-c1cc(NCc2ccccn2)c2c(C(C)C)nn(C)c2n1` [Example 40, 6-(2-ethoxy-3-pyridyl)-3-isopropyl-1-methyl-N-(2-pyridylmethyl)pyrazolo[3,4-b]pyridin-4-amine] the same measures were 8.9 nM, 68 nM and 82 nM.
With `CCOc1ncccc1-c1cc(NCc2cnn(C)n2)c2c(C(C)C)nc(C)n2n1` [Example 44, 2-(2-ethoxy-3-pyridyl)-5-isopropyl-7-methyl-N-[(2-methyltriazol-4-yl)methyl]imidazo[1,5-b]pyridazin-4-amine], the IC50 on PDE1B (read-out: PDE1B, IC50) was 5.1 nM; against PDE1A, 38 nM; against PDE1C, 24 nM.
For `CCOc1ncccc1-c1cc(NCc2nnc(C)o2)c2c(C(C)C)nn(C)c2n1` [Example 31, 6-(2-ethoxy-3-pyridyl)-3-isopropyl-1-methyl-N-[(5-methyl-1,3,4-oxadiazol-2-yl)methyl]pyrazolo[3,4-b]pyridin-4-amine] the same measures were 16 nM, 110 nM and 110 nM.
Regarding `CCOc1ncccc1-c1cc(NCc2cccc3nccn23)c2c(C(C)C)nc(C)n2n1` [Example 79, 2-(2-ethoxy-3-pyridyl)-N-(imidazo[1,2-a]pyridin-5-ylmethyl)-5-isopropyl-7-methyl-imidazo[1,5-b]pyridazin-4-amine], the IC50 on PDE1B (read-out: PDE1B, IC50) stood at 28 nM; against PDE1A, 35 nM; against PDE1C it was 19 nM.
On to `CCOc1ncccc1-c1cc(NCc2ncn(C)n2)c2c(C(C)C)nc(C)n2n1` [Example 11, 2-(2-ethoxy-3-pyridyl)-5-isopropyl-7-methyl-N-[(1-methyl-1,2,4-triazol-3-yl)methyl]imidazo[1,5-b]pyridazin-4-amine], for which the IC50 at PDE1B (read-out: PDE1B, IC50) amounted to 0.28 nM; at PDE1A, 2 nM; against PDE1C, 2.6 nM.

The values are drawn from patent US10351561B2, “Pyrazolo[3,4-b]pyridines and imidazo[1,5-b]pyridazines as PDE1 inhibitors” (H. Lundbeck A/S, priority 2016, dated 2019).
